Measurements published in patent US12410185B2, “Compounds targeting mutant calreticulin” (MYELOPRO DIAGNOSTICS AND RESEARCH GmbH, priority 2018, dated 2025).

What was measured:
[1] = tested on: mutant CALR Ba/F3 cell lines; assay: 72 h dose response test, CellTiter-Glo cell viability assay; format: cell-based, mouse; details: 72 h dose response test
CALR mutant cell lines = assay: cells; details: 72 h, read-out: IC50 in mutant cell lines
Experimental: Ba/F3 and UT-7-TPO were plated 5.000 cells/well and 16.000 cells/well into 96-well plates with the desirable concentrations of compounds or cytokines added to a total volume of 100 ul. 72 hours later, the CellTiter-Glo luminescent Cell Viability Assay (Promega) was used to determine the cell viability. The luminescent signal was detected by a VICTOR Multilabel Plate Reader (PerkinElmer). Dose response data was analyzed by Graphpad Prism 7.0.
To further explore the chemical space of the compound, a few hematoxylin analogues were also tested (FIGS. 15 to 17). […] The compounds Protosappanin B (A-4) and RJ002 (B-2) were also tested. […] As a comparison, the clinically used chemotherapeutic drugs hydroxyurea and ruxolitinib were also tested in the cell models.

[2] = tested on: Ba/F3-MPL cell lines carrying C-terminal truncated CALR; assay: cytotoxicity assay in cell lines with C-terminal truncated CALR; format: cell-based, mouse; details: truncated CALR mutations vs disease frameshift
Experimental: In order to further confirm the selective cytotoxicity of hematoxylin in CALR mutant cells, two-color competition assays were performed in both Ba/F3 and UT-7-TPO cells to assess the long-term efficacy of the compound (FIG. 9). […] The differential killing effect of hematoxylin could also be reproduced in the UT-7-TPO cell line. […] This reading frame encounters a stop codon shortly after the mutation and causes a truncation at the CALR C-terminus (FIG. 12). […] Moreover, CALR KO Ba/F3-MPL cell lines were tested for hematoxylin sensitivity.

wild-type CALR protein = wild-type CALR protein (Homo sapiens, UniProt P27797); assay: binding assay (data not shown)
wild-type CALR protein, sequence (P27797 18-417): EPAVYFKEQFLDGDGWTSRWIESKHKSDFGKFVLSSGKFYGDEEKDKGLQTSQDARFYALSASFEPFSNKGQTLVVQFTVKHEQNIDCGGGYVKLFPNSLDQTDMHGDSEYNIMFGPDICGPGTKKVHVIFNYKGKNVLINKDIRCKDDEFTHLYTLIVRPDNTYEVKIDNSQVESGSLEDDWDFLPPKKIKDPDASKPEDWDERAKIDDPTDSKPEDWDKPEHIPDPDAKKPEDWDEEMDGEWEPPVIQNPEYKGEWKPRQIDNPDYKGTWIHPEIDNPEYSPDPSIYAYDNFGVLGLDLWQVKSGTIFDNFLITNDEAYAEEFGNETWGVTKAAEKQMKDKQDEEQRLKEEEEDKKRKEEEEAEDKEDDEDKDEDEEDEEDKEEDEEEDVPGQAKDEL

mutant calreticulin = molecular target: T1, mutant calreticulin (Homo sapiens, UniProt P27797); assay: Western blot analysis of CD34-positive cells from a CALR ins5 mutant patient; format: cell-based; set-up: dose or concentration left out as unconfirmed; details: hematoxylin, 8 hours
T1 construct: CD34-positive cells isolated from a healthy control and a CALR ins5 mutant patient; endogenous in cells; host or cells: primary CD34-positive cells from a CALR ins5 mutant patient
T1 sequence (P27797 with tags, fused parts or gaps, stated change not applied): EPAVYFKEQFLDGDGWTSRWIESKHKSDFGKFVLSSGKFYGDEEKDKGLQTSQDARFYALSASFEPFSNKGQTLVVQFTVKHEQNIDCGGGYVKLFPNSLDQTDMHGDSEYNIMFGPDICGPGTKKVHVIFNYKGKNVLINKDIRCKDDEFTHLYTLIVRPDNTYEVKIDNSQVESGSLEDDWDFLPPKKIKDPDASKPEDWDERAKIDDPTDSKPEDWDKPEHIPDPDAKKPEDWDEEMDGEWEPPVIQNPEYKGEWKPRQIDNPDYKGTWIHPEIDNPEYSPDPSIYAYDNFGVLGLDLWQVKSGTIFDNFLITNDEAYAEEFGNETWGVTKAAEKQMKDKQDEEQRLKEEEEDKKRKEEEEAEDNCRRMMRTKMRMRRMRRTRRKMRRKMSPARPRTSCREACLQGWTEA
Experimental: 2 million Ba/F3-MPL CALR WT or mutant cells were treated with hematoxylin or the equivalent volume of DMSO in a total volume of 15 ml of RPMI media in T75 flasks (Thermal Fisher Scientific). Cells were collected and washed with PBS before being lysed in whole cell lysis buffer containing 20 mM HEPES, 20% glycerol, 50 mM KCl, 400 mM NaCl, 1 mM EDTA, 1 mM DTT, 5 mM Na orthovanadate, 0.5% NP40, 0.1% Tween 20, supplemented with cOmplete™, Mini, EDTA-free Protease Inhibitor Cocktail (Sigma) and PhosSTOP™ (Sigma). Samples were rotated at 4° C. for 20 min prior to centrifugation at […] for 20 min. The soluble fraction of the sample was collected. Protein concentration was quantified by the Bio-Rad Protein Assay (Bio-Rad) according to the manufacturer's instructions and measured by a SpectraMax Microplate Reader (Molecular Devices). Equal amounts of protein were loaded for 8% or 10% SDS-polyacrylamide gel electrophoresis prior to transfer to Amersham™ Protran® nitrocellulose membranes at 35V, 4° C. overnight. Membranes were then blocked by 5% bovine serum albumin fraction V (Sigma) or milk. Mutant calreticulin was detected by a polyclonal rabbit antibody against the mutant specific C-terminal peptide (Myelopro). […]

Structure (SMILES): Oc1cc2c(cc1O)[C@@H]1c3ccc(O)c(O)c3OC[C@]1(O)C2 [hematoxylin, Hematoxylin]
- reduction of IC50 in mutant CALR Ba/F3 cell lines compared with the wild-type cell line [1]: 3-5 fold
- IC50 (CALR mutant cell lines): 2600 nM
- hypersensitivity towards compound treatment [2]: did not show hypersensitivity
- binding to wild-type CALR protein (wild-type CALR protein): bound
- protein abundance of mutant calreticulin (mutant calreticulin): drastically reduced
